Source: publication PMC4432589, “Structural basis for dynamic mechanism of nitrate/nitrite antiport by NarK” (Nature Communications, 2015)

Assays:
[1] = molecular target: T1, NarK (Escherichia coli, UniProt P10903); assay: X-ray crystal structure (LCP, SIRAS and molecular replacement); conditions: occluded state (2.4 Å, pH 5.8, 100 mM NH4NO3) and inward-open state (2.4 Å, pH 6.0); central substrate-binding site
T1 construct: full-length gene in pET-modified vector; GFP-His8 tag cleaved by TEV protease; expressed in E. coli C41(DE3) delta-acrB; DDM/CHS purified; LCP crystals or soybean lipid proteoliposomes
T1 sequence (P10903 1-463): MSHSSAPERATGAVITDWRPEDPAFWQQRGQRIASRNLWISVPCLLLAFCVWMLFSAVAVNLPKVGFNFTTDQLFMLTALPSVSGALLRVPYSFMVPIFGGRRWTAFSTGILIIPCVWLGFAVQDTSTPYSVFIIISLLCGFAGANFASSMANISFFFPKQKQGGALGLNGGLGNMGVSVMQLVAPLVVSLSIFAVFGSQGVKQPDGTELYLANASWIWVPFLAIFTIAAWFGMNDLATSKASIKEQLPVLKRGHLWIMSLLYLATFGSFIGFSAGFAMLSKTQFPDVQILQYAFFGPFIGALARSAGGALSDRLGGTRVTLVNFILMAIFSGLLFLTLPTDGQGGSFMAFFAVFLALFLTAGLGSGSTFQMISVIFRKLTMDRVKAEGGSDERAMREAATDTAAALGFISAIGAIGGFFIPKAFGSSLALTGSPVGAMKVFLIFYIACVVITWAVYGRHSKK

[2] = molecular target: T1, NarK; assay: nitrite uptake into NarK proteoliposomes, DAF-FM fluorescence; format: biochemical; conditions: 50 mM NaNO2 outside, 50 mM NaNO3 inside as counter-anion; pH 7.0; membrane potential; 37 °C

Compound | X-ray crystal structure (LCP, SIRAS and molecular replacement) [1] | nitrite uptake into NarK proteoliposomes, DAF-FM fluorescence [2]
O=[N+]([O-])O [nitrate] | 4U4T (nitrate-bound inward-open state) and 4U4W (nitrate-bound occluded state) | –
O=NO [nitrite] | – | We observed the uptake of nitrite when nitrate was present inside the liposomes
